Laboratory results as given in patent US10428051B2 (priority 2015, dated 2019).

Molecular target: human σ1 receptor (Homo sapiens, UniProt Q99720)
Experiment: biochemical
Assay type: binding
Parameters: μ and σ1 dual (binding to the σ1 receptor and the μ-opioid receptor expressed as Ki): key to the marks not given beside the values

Sequence of human σ1 receptor (Q99720 whole entry): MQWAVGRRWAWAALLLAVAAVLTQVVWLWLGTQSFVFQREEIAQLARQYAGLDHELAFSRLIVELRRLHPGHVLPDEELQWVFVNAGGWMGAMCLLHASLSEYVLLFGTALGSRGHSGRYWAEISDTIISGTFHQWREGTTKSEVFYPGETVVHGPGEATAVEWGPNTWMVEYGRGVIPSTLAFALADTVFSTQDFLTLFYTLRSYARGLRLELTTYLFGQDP

`CCC(=O)N(CC1(N2CCN(CCC(C)C)CC2)CCOC(C)(C)C1)c1ncccc1F` (centres unmarked) [Example 168, N-(3-fluoropyridin-2-yl)-N-((4-(4-isopentylpiperazin-1-yl)-2,2-dimethyltetrahydro-2H-pyran-4-yl)methyl)propionamide] was tested, and the “μ and σ1 dual (binding to the σ1 receptor and the μ-opioid receptor expressed as Ki)” value (“μ and σ1 dual” for short) was “++”.

Compound `CCOCCCN1CCN(C2(CN(C(=O)CC)c3cccc(C(F)(F)F)n3)CCOCC2)CC1` [Example 150, N-((4-(4-(3-ethoxypropyl)piperazin-1-yl)tetrahydro-2H-pyran-4-yl)methyl)-N-(6-(trifluoromethyl)pyridin-2-yl)propionamide] has a Ki of less than 0.5 µM.

`CCC(=O)N(CC1(N2CCN(Cc3ccccc3)CC2)CCOCC1)c1ccc(F)cn1` [Example 6, N-((4-(4-benzylpiperazin-1-yl)tetrahydro-2H-pyran-4-yl)methyl)-N-(5-fluoropyridin-2-yl)propionamide] gave a Ki of less than 0.5 µM.

With `CCC(=O)N(CC1(N2CCN(Cc3ccccc3)CC2)CC1)c1cccnc1` [Example 36, N-((1-(4-benzylpiperazin-1-yl)cyclopropyl)methyl)-N-(pyridin-3-yl)propionamide] the Ki was less than 0.5 µM.

In the case of `CCC(=O)N(CC1(N2CCN(CC(C)C)CC2)CCOCC1)c1cccc(C#N)n1` [Example 85, N-(6-cyanopyridin-2-yl)-N-((4-(4-isobutylpiperazin-1-yl)tetrahydro-2H-pyran-4-yl)methyl)propionamide], the Ki is reported as greater than 0.5 µM.

For `CCC(=O)N(CC1(N2CCN(CC(C)(C)F)CC2)CCOCC1)c1cccc(C(F)(F)F)n1` [Example 190, N-((4-(4-(2-fluoro-2-methylpropyl)piperazin-1-yl)tetrahydro-2H-pyran-4-yl)methyl)-N-(6-(trifluoromethyl)pyridin-2-yl)propionamide], the Ki was less than 0.5 µM.

Compound `CCC(=O)N(CC1(N2CCN(Cc3ccccc3)CC2)CCOCC1)c1ncccc1C(F)(F)F` [Example 59, N-((4-(4-benzylpiperazin-1-yl)tetrahydro-2H-pyran-4-yl)methyl)-N-(3-(trifluoromethyl)pyridin-2-yl)propionamide] has a Ki of less than 0.5 µM.

`CCC(=O)N(CC1(N2CCN(Cc3ccccc3)CC2)CCOCC1)c1cc(C(F)(F)F)ccn1` [Example 8, N-((4-(4-benzylpiperazin-1-yl)tetrahydro-2H-pyran-4-yl)methyl)-N-(4-(trifluoromethyl)pyridin-2-yl)propionamide] was tested, and the Ki was less than 0.5 µM.

`CCC(=O)N(CC1(N2CCN(CC(C)C)CC2)CCC1)c1cccc(C(F)(F)F)n1` [Example 203, N-((1-(4-isobutylpiperazin-1-yl)cyclobutyl)methyl)-N-(6-(trifluoromethyl)pyridin-2-yl)propionamide] gave a Ki of less than 0.5 µM.

`CCC(=O)N(CC(C)(C)N1CCN(CCc2ncccc2F)CC1)c1ccccc1F` [Example 71, N-(2-fluorophenyl)-N-(2-(4-(2-(3-fluoropyridin-2-yl)ethyl)piperazin-1-yl)-2-methylpropyl)propionamide] was tested, and the “μ and σ1 dual” value was “++”.

Compound `CCC(=O)N(CC1(N2CCN(Cc3ccccn3)CC2)CCOCC1)c1ccccc1` [Example 102, N-phenyl-N-((4-(4-(pyridin-2-ylmethyl)piperazin-1-yl)tetrahydro-2H-pyran-4-yl)methyl)propionamide] has a Ki greater than 0.5 µM.

Compound `CCC(=O)N(CC1(N2CCN(Cc3ccccc3)CC2)CCOC(C)(C)C1)c1ccccn1` (centres unmarked) [Example 16, N-((4-(4-benzylpiperazin-1-yl)-2,2-dimethyltetrahydro-2H-pyran-4-yl)methyl)-N-(pyridin-2-yl)propionamide] has a Ki of less than 0.5 µM.

With `COCC(=O)N(CC1(N2CCN(CC(C)C)CC2)CCOCC1)c1cccc(C(F)(F)F)n1` [Example 39, N-((4-(4-isobutylpiperazin-1-yl)tetrahydro-2H-pyran-4-yl)methyl)-2-methoxy-N-(6-(trifluoromethyl)pyridin-2-yl)acetamide] the “μ and σ1 dual” value was “++”.

`CCC(=O)N(CC1(N2CCN(CCC(C)C)CC2)CCOC2(CCCC2)C1)c1cccc(C(F)(F)F)n1` (centres unmarked) [Example 173, N-((9-(4-isopentylpiperazin-1-yl)-6-oxaspiro[4.5]decan-9-yl)methyl)-N-(6-(trifluoromethyl)pyridin-2-yl)propionamide] gave a Ki of less than 0.5 µM.

Compound `CCC(=O)N(CC1(N2CCN(Cc3ccccn3)CC2)CC1)c1ccccc1` [Example 114, N-phenyl-N-((1-(4-(pyridin-2-ylmethyl)piperazin-1-yl)cyclopropyl)methyl)propionamide] has a Ki of less than 0.5 µM.

With `CCC(=O)N(CC1(N2CCN(CC(=O)N3CCCCC3)CC2)CC1)c1ccccc1` [Example 132, N-((1-(4-(2-oxo-2-(piperidin-1-yl)ethyl)piperazin-1-yl)cyclopropyl)methyl)-N-phenylpropionamide] the “μ and σ1 dual” value was “++”.

`CCC(=O)N(CC1(N2CCN(Cc3ccccc3)CC2)CC1)c1cncc(F)c1` [Example 93, N-((1-(4-benzylpiperazin-1-yl)cyclopropyl)methyl)-N-(5-fluoropyridin-3-yl)propionamide] showed a Ki of less than 0.5 µM.

Compound `CCC(=O)N(CC1(N2CCN(Cc3cccnc3)CC2)CCOCC1)c1ccccc1` [Example 101, N-phenyl-N-((4-(4-(pyridin-3-ylmethyl)piperazin-1-yl)tetrahydro-2H-pyran-4-yl)methyl)propionamide] has a Ki of less than 0.5 µM.

In the case of `CCC(=O)N(CC1(N2CCN(CC(C)C)CC2)CCOC(C)(C)C1)c1cccc(C(F)(F)F)n1` (centres unmarked) [Example 160, N-((4-(4-isobutylpiperazin-1-yl)-2,2-dimethyltetrahydro-2H-pyran-4-yl)methyl)-N-(6-(trifluoromethyl)pyridin-2-yl)propionamide], the Ki is reported as less than 0.5 µM.

In the case of `CCOCCN1CCN(C2(CN(C(=O)CC)c3cccc(C(F)(F)F)n3)CCC2)CC1` [Example 202, N-((1-(4-(2-ethoxyethyl)piperazin-1-yl)cyclobutyl)methyl)-N-(6-(trifluoromethyl)pyridin-2-yl)propionamide], the Ki is reported as less than 0.5 µM.

`CCC(=O)N(CC1(N2CCN(CCC(C)C)CC2)CCOCC1)c1cccc(C#N)n1` [Example 86, N-(6-cyanopyridin-2-yl)-N-((4-(4-isopentylpiperazin-1-yl)tetrahydro-2H-pyran-4-yl)methyl)propionamide] gave a Ki of less than 0.5 µM.

`CCC(=O)N(CC1(N2CCN(Cc3cncc(F)c3)CC2)CC1)c1ccccc1` [Example 122, N-((1-(4-((5-fluoropyridin-3-yl)methyl)piperazin-1-yl)cyclopropyl)methyl)-N-phenylpropionamide] was tested, and the Ki was less than 0.5 µM.

For `CCC(=O)N(CC1(N2CCN(Cc3ccc(NC(C)=O)cc3)CC2)CC1)c1ccccc1` [Example 115, N-((1-(4-(4-acetamidobenzyl)piperazin-1-yl)cyclopropyl)methyl)-N-phenylpropionamide], the “μ and σ1 dual” value was “++”.

Compound `CCC(=O)N(CC1(N2CCN(Cc3ccccc3)CC2)CCOCC1)c1ccccc1O` [Example 54, N-((4-(4-benzylpiperazin-1-yl)tetrahydro-2H-pyran-4-yl)methyl)-N-(2-hydroxyphenyl)propionamide] has a Ki of less than 0.5 µM.

Work on `CCC(=O)N(CC1(N2CCN(CCOC(C)C)CC2)CC1)c1cccc(C(F)(F)F)n1` [Example 179, N-((1-(4-(2-isopropoxyethyl)piperazin-1-yl)cyclopropyl)methyl)-N-(6-(trifluoromethyl)pyridin-2-yl)propionamide] yielded a Ki of less than 0.5 µM.

For `CCOCCN1CCN(C2(CN(C(=O)CC)c3cccc(C(F)(F)F)n3)CCSCC2)CC1` [Example 205, N-((4-(4-(2-ethoxyethyl)piperazin-1-yl)tetrahydro-2H-thiopyran-4-yl)methyl)-N-(6-(trifluoromethyl)pyridin-2-yl)propionamide], the Ki was less than 0.5 µM.

`CCC(=O)N(CC1(N2CCN(Cc3ccc(F)cc3)CC2)CCOCC1)c1ccccc1` [Example 105, N-((4-(4-(4-fluorobenzyl)piperazin-1-yl)tetrahydro-2H-pyran-4-yl)methyl)-N-phenylpropionamide] showed a Ki of less than 0.1 µM.

`CCC(=O)N(CC1(N2CCN(CC(C)C)CC2)CC1)c1cccc(C(F)(F)F)n1` [Example 123, N-((1-(4-isobutylpiperazin-1-yl)cyclopropyl)methyl)-N-(6-(trifluoromethyl)pyridin-2-yl)propionamide] showed a Ki of less than 0.1 µM.

For `CCOCCN1CCN(C2(CN(C(=O)CC)c3ncccc3F)CCOCC2)CC1` [Example 156, N-((4-(4-(2-ethoxyethyl)piperazin-1-yl)tetrahydro-2H-pyran-4-yl)methyl)-N-(3-fluoropyridin-2-yl)propionamide], the “μ and σ1 dual” value was “++”.

For `CCC(=O)N(CC1(N2CCN(CCOC(C)C)CC2)CCOCC1)c1ccccn1` [Example 152, N-((4-(4-(2-isopropoxyethyl)piperazin-1-yl)tetrahydro-2H-pyran-4-yl)methyl)-N-(pyridin-2-yl)propionamide], the Ki was greater than 0.5 µM.

`CCC(=O)N(Cc1ccccc1)CC1(N2CCN(Cc3ccccc3)CC2)CCOCC1` [Example 14, N-benzyl-N-((4-(4-benzylpiperazin-1-yl)tetrahydro-2H-pyran-4-yl)methyl)propionamide] was tested, and the “μ and σ1 dual” value was “++”.

Work on `CCC(=O)N(CC1(N2CCN(Cc3ccccc3)CC2)CCOCC1)c1nc(C(F)(F)F)ccc1C#N` [Example 60, N-((4-(4-benzylpiperazin-1-yl)tetrahydro-2H-pyran-4-yl)methyl)-N-(3-cyano-6-(trifluoromethyl)pyridin-2-yl)propionamide] yielded a Ki of less than 0.5 µM.

With `CCC(=O)N(CC1(N2CCN(Cc3ccccc3)CC2)CCOCC1)c1cccc(C#N)c1` [Example 57, N-((4-(4-benzylpiperazin-1-yl)tetrahydro-2H-pyran-4-yl)methyl)-N-(3-cyanophenyl)propionamide] the “μ and σ1 dual” value was “++”.

With `CCC(=O)N(CC1(N2CCN(Cc3ccc(C(=O)NC)cc3)CC2)CC1)c1ccccc1` [Example 131, N-methyl-4-((4-(1-((N-phenylpropionamido)methyl)cyclopropyl)piperazin-1-yl)methyl)benzamide] the “μ and σ1 dual” value was “++”.

Compound `CCC(=O)N(CC1(N2CCN(Cc3ccccc3)CC2)CC1)c1cccc(C#N)c1` [Example 96, N-((1-(4-benzylpiperazin-1-yl)cyclopropyl)methyl)-N-(3-cyanophenyl)propionamide] has a Ki of less than 0.5 µM.
